Measured values from article PMC7669869, “AdipoR1/AdipoR2 dual agonist recovers nonalcoholic steatohepatitis and related fibrosis via endoplasmic reticulum-mitochondria axis” (Nature Communications, 2020).
Values joined by “and” are separate entries in the source; they are usually repeats but may differ in a detail not shown here. Equal values may be shown once. Non-standard residues stand in square brackets, D forms with d. Residues, ends and D or L forms follow the SMILES beside them. Nva = CCC[C@H](N)C(=O)O

Columns and labels:
[1] = tested on: gene expression in LX2 cells; test: Quantitative RT-PCR in LX2 cells; assay type: cell-based, human; design: key to Vimentin mRNA / CTGF mRNA / OPN mRNA / IL-6 mRNA / TNF mRNA / IL-1 mRNA / TIMP2 mRNA / MMP2 mRNA / MMP9 mRNA / MMP12 mRNA / MMP13 mRNA: relative mRNA expression normalized to β-actin
Protocol: Hepatoma carcinoma cell line HepG2 and human hepatic activated stellate cell line LX2 used in this study were purchased from Type Culture Collection of the Chinese Academy of Sciences (Shanghai, China). Cells were cultured in Dulbecco’s modified Eagle’s medium (DMEM) with 10% fetal bovine serum (FBS), supplemented with 1% penicillin–streptomycin (ThermoFisher Scientific, USA) at 37 °C in a humidified atmosphere of 5% CO2. In PA (Sigma, USA) induced lipid accumulation cell model, HepG2 cells were seeded into a 6-well plate at 5E5 cells per well. 0.25 mM PA and/or 200 μM candidate peptides were co-incubated with cells for 24 h. Then Oil Red O staining was performed to evaluate the accumulation of lipid droplets. BSA (Sigma, USA) was used in this experiment as the negative control. For LX2 cells, 2E5 cells were seeded, then the adherent cells were exposed to 200 μM candidate peptides for another 48 h. Next, the cell protein was obtained and western blotting was performed. Candidate peptides were diluted in DMEM in a stock concentration of 1 M.
Liver total RNA was extracted by using Trizol reagent following the manufacture’s instruction (TransGen Biotech, China). The concentration of RNA was measured by Nanodrop 2000 (ThermoFisher Scientific, USA). cDNA was transcribed from 10ug total RNA with First Strand cDNA synthesis Super Mix (TransGen Biotech, China). The cDNA was diluted 1/50 and 1.0 uL were used as a template for qPCR. qPCR was performed with SYBR Green qPCR Super Mix (TransGen Biotech, China) in the Light Cycler 480 Real-Time PCR System (Roche, Swiss). Reference gene β-actin was used for data normalization. mRNA expression was analyzed with specific primers listed in Supplementary Table 2.

[2] = tested on: PA induced HepG2 cells; test: Mitochondrial content assay (MitoTracker), PA induced HepG2; assay type: cell-based, human; details: HepG2, PA + 200 μM JT003; in words
Protocol: 60–70% confluent LX2 cells and PA induced HepG2 cells were washed with PBS twice and incubated with 100 nM MitoTracker Green FM (YeSan, China) at 37 °C for 30 min For fluorescence intensity assay, cells were harvested by using trypsin/EDTA (ThermoFisher Scientific, USA) and resuspended in PBS. The excitation and emission wavelengths were 490 and 516 nm, respectively, and the intensity values corrected for total protein level (mg ml^−1). For mitochondrial visualized assay, after incubated with MitoTracker Green FM, the adherent cells were washed with PBS and a single in-focus optical section was acquired with confocal microscopy (Olympus, Japan). The nucleus was stained with Hochest33342 (ThermoFisher Scientific, USA). For every section n = 50 cells, images were analyzed and quantified by ImageJ.

[3] = biological target: T1, AdipoR2 (Homo sapiens, UniProt Q86V24); test: Competition binding assay vs globular adiponectin (western blot), AdipoR2 overexpression cells; details: JT003 4 h, then 50 μg ml−1 gAd155–161 4 h, in words
T1 construct: His; host or cells: HEK293
T1 sequence (Q86V24 1-386): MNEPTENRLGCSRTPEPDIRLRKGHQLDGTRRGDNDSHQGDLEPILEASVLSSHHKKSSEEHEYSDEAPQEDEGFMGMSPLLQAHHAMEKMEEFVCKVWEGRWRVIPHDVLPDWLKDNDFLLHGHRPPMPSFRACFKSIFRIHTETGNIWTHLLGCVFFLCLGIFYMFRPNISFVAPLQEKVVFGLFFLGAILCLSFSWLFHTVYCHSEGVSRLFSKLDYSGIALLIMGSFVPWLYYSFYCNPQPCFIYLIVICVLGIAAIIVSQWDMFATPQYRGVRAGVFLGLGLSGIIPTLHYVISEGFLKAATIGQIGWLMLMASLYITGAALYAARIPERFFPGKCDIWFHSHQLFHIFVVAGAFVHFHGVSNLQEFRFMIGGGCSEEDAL
Protocol: Different concentration of JT003 were incubated with AdipoR1 or AdipoR2 overexpression HEK293 cell line for 4 h. After that, 50 μg ml^−1 gAd155–161 were added for another 4 h incubation. The binding of gAd155–161 to the cells were measured via western blot assay.

[4] = Figure 6a left, LX2 cells, JT003 vs Vehicle, single replicates, n = 4
[5] = Figure 6a right, LX2 cells, JT003 vs Vehicle, single replicates, n = 4

CCC[C@H](NC(=O)[C@@H]1CCCN1)C(=O)N[C@@H](CC(C)C)C(=O)N[C@@H](Cc1ccc(O)cc1)C(=O)N[C@@H](Cc1ccc(O)cc1)C(=O)N[C@@H](Cc1ccccc1)C(=O)N[C@@H](C)C(N)=O [JT003] (H-P[Nva]LYYFA-NH2)
MMP2 mRNA [1, 4]: 1.293 and 0.7704 and 1.1819 and 1.0719 | MMP9 mRNA [1, 4]: 2.131 and 1.538 and 2.384 and 1.884 | MMP12 mRNA [1, 4]: 1.826 and 1.7 and 2.413 and 1.763 | MMP13 mRNA [1, 4]: 2.514 and 2.381 and 3.247 and 2.347 | TIMP2 mRNA [1, 4]: 0.8037 and 0.8728 and 0.6883 and 0.7883 | CTGF mRNA [1, 5]: 0.7417 and 0.5541 and 0.6479 and 0.621 | IL-1 mRNA [1, 5]: 0.9119 and 0.6477 and 0.5242 and 0.686 | IL-6 mRNA [1, 5]: 0.6335 and 0.6954 and 0.6645 and 0.66 | OPN mRNA [1, 5]: 0.8619 and 0.7815 and 0.9867 and 0.8941 | TNF mRNA [1, 5]: 0.6949 and 0.8263 and 0.7906 and 0.7334 | Vimentin mRNA [1, 5]: 0.6199 and 0.6972 and 0.6586 and 0.5779 | IL-1a mRNA, relative expression, Supplementary Figure 15a ([1]; JT003 vs Vehicle, replicate 1): 0.9119 | IL-6 mRNA, relative expression, Supplementary Figure 15a ([1]; JT003 vs Vehicle, replicate 1): 1.034 | TNFa mRNA, relative expression, Supplementary Figure 15a ([1]; JT003 vs Vehicle, replicate 1): 0.6949 | iNOS mRNA, relative expression, Supplementary Figure 15a ([1]; JT003 vs Vehicle, replicate 1): 1.242 | IL-1a mRNA, relative expression, Supplementary Figure 15a ([1]; JT003 vs Vehicle, replicate 2): 0.5774 | IL-6 mRNA, relative expression, Supplementary Figure 15a ([1]; JT003 vs Vehicle, replicate 2): 0.932 | TNFa mRNA, relative expression, Supplementary Figure 15a ([1]; JT003 vs Vehicle, replicate 2): 0.8263 | iNOS mRNA, relative expression, Supplementary Figure 15a ([1]; JT003 vs Vehicle, replicate 2): 1.188 | IL-1a mRNA, relative expression, Supplementary Figure 15a ([1]; JT003 vs Vehicle, replicate 3): 0.5946 | IL-6 mRNA, relative expression, Supplementary Figure 15a ([1]; JT003 vs Vehicle, replicate 3): 0.9828 | TNFa mRNA, relative expression, Supplementary Figure 15a ([1]; JT003 vs Vehicle, replicate 3): 0.7606 | iNOS mRNA, relative expression, Supplementary Figure 15a ([1]; JT003 vs Vehicle, replicate 3): 0.8438 | IL-1a mRNA, relative expression, Supplementary Figure 15a ([1]; JT003 vs Vehicle, replicate 4): 0.706 | IL-6 mRNA, relative expression, Supplementary Figure 15a ([1]; JT003 vs Vehicle, replicate 4): 0.9774 | TNFa mRNA, relative expression, Supplementary Figure 15a ([1]; JT003 vs Vehicle, replicate 4): 0.7834 | iNOS mRNA, relative expression, Supplementary Figure 15a ([1]; JT003 vs Vehicle, replicate 4): 0.9516 | HSC activation factors (Vimentin, CTGF, OPN, IL-6, TNFα and IL-1α) ([1]; LX2, 200 μM JT003, in words): significantly suppressed | expression of ER-mitochondrial function-related markers ([1]; LX2, 200 μM JT003, in words): improved | expression of genes involved in ECM accumulation (TIMP1) and degradation (MMP9, MMP12, MMP13) ([1]; LX2, 200 μM JT003, in words): notably altered | inflammation related genes (TNFα, IL-1α, IL-6 and iNOS) ([1]; LX2, 200 μM JT003, in words): suppressed | mitochondrial content / biogenesis in PA induced HepG2 [2]: mitochondrial biogenesis was improved | competitive binding to globular adiponectin, AdipoR2 overexpression cells [3]: more JT003 cause less globular adiponectin binding
